Results as given in ChEMBL document CHEMBL1148108, “Prenylated isoflavonoids from the root bark of Erythrina vogelii” (J Nat Prod, 2002).
Active and inactive are the calls of the source. The rule behind the calls is not given here.

tested on: Cladosporium cucumerinum; assay: Antifungal activity against Cladosporium cucumerinum by TLC biautography assay; type: functional, organism-based

SMILES	Activity
CC(C)=CCc1c(O)cc2occ(-c3ccc4c(c3)C=CC(C)(C)O4)c(=O)c2c1O	inactive
C/C(=C\Cc1cc(-c2coc3cc(O)cc(O)c3c2=O)ccc1O)CO	inactive
CC(C)=CCc1cc(-c2coc3cc(O)cc(O)c3c2=O)cc2c1OC(C)(C)C(O)C2 (configuration not stated)	inactive
CC1(C)Oc2ccc(-c3coc4cc(O)cc(O)c4c3=O)cc2C[C@@H]1O	inactive
CC(C)=CCc1c(O)cc(O)c2c(=O)c(-c3ccc4c(c3)C=CC(C)(C)O4)coc12	inactive
COc1cc(O)c(CC=C(C)C)cc1-c1coc2cc(O)cc(O)c2c1=O	inactive
COc1ccc([C@@H]2COc3cc(O)c(CC=C(C)C)c(O)c3C2=O)cc1CC=C(C)C	inactive
